Experiments:
Format in all cases: in vivo
[1] = system: Nilaparvata lugens; assay: Test Example 4: drench at foot of rice seedling, Nilaparvata lugens larvae released; conditions: Nilaparvata lugens, soil, 144 h; active ingredient 500 ppm, 5 ml drench at foot of rice seedling, 7 days at 25°C, then third-fourth instar larvae kept 6 days; read-out: control value
[2] = system: Plutella xylostella; assay: Test Example 6: spray on cabbage, Plutella xylostella larvae released; conditions: 120 h, active ingredient 500 ppm, 20 mL/cup sprayed on cabbage, second instar larvae, 25°C for 5 days, read-out: death rate
Protocol: On the other hand, on cabbage at the third leaf stage planted in a polyethylene cup was sprayed, at a rate 20 mL/cup, the test drug solution. After the drug solution was dried, the foliage part was cut off, and then placed in a 50 mL volume cup. Five second instar larvae of Plutella xylostella were released into the cup, and the cup was sealed with a lid. After the cup was kept at 25°C for 5 days, the number of dead insects was counted. The death rate was calculated according to the following equation. Death rate (%) = (Number of dead insects/Number of tested insects) × 100 [formula]

[3] = system: Blattella germanica; assay: whole plant or invertebrate; conditions: 144 h, read-out: death rate
Protocol: The formulations of Compounds of Present Invention 1-11, 1-19 and 1-23 as obtained in Formulation Example 5 were diluted with water, so as to have a concentration of the active ingredient of 500 ppm, to prepare a test drug solution.
A filter paper having a diameter of 5.5 cm was spread on the bottom of a polyethylene cup having the same diameter and 0.7 ml of the test drug solution was added dropwise onto the filter paper, and 30 mg of sucrose was uniformly placed as bait. Into the polyethylene cup, 2 male imagoes of Blattella germanica were released, and the cup was sealed with a lid. After 6 days, the life and death of Blattella germanica was examined, the number of dead insects was counted, and the death rate was calculated according to the following equation. Death rate (%) = (Number of dead insects/Number of tested insects) × 100 [formula]

[4] = system: Culex pipiens pallens; assay: Test Example 10: Culex pipiens pallens larvae in treated water; conditions: 24 h, active ingredient concentration 3.5 ppm in ion-exchanged water, last-instar larvae, one day later, read-out: death rate
Description: 20 last-instar larvae of Culex pipiens pallens were released into the solution. One day later, the life and death of the Culex pipiens pallens was examined, and the number of dead insects was counted to calculate the death rate. Death rate (%) = (Number of dead insects/Number of tested insects) × 100 [formula]

[5] = system: Aphis gossypii; assay: Test Example 1: foliar spray on cucumber seedling inoculated with Aphis gossypii; conditions: 144 h, active ingredient 500 ppm, 20 ml sprayed on cucumber seedling, six days after spraying, read-out: control value
Protocol: On the other hand, on a cucumber seedling (the first true leaf stage) planted in a plastic cup was inoculated with about 30 Aphis gossypii (whole stage), and left for a day. 20 ml of the test drug solution was sprayed on the seedling. Six days after spraying, the number of surviving Aphis gossypii parasitic on the leaves of the cucumber was examined, and the control value was calculated according to the following equation: Control value (%) = {1-(Cb×Tai)/(Cai×Tb)} × 100 [formula] wherein the symbols represent as follows: • Cb: the number of insects in a non-treated section before treatment • Cai: the number of surviving parasitic insects in a non-treated section on observation • Tb: the number of insects in a treated section before treatment • Tai: the number of surviving parasitic insects in a treated section on observation • wherein the non-treated section refers to a section where the test drug solution prepared by diluting the formulation obtained as in Formulation Example 5 but not containing the compound of the present invention with the same amount of water as in the treated section was sprayed.

[6] = system: Aphis gossypii; assay: Test Example 2: drench at foot of cucumber seedling, later inoculated with Aphis gossypii; conditions: soil, 144 h, active ingredient 500 ppm, 5 ml drench at foot of cucumber seedling, 7 days at 25°C, then inoculated and kept 6 days, read-out: control value
Protocol: On the other hand, a cucumber seedling (the second true leaf stage) planted in a plastic cup was drenched at its foot with 5 ml of the test drug solution, and kept in a greenhouse at 25°C for 7 days. On the cucumber leaf surface was inoculated about 30 Aphis gossypii (whole stage), and further kept in the greenhouse for 6 days, then the number of surviving Aphis gossypii parasitic on the leaves of the cucumber was examined, and the control value was calculated according to the following equation: Control value (%) = {1-(Cb×Tai)/(Cai×Tb)} × 100 [formula] wherein the symbols represent as follows: • Cb: the number of insects in a non-treated section before treatment • Cai: the number of surviving parasitic insects in a non-treated section on observation • Tb: the number of insects in a treated section before treatment • Tai: the number of surviving parasitic insects in a treated section on observation • wherein the non-treated section refers to a section where the test drug solution prepared by diluting the formulation obtained as in Formulation Example 5 but not containing the compound of the present invention with the same amount of water as in the treated section was sprayed.

CCN(CC)C(=O)c1cnc(-c2nc3cc(C(F)(F)F)cnc3n2C)c(S(=O)(=O)CC)c1 [Compound of Present Invention 1-11, N,N-diethyl-5-ethylsulfonyl-6-(3-methyl-6-trifluoromethyl-3 H-imidazo[4,5-b]pyridin-2-yl)nicotinamide] showed a mortality at 500 ppm [1] of at least 90%, a mortality at 500 ppm [2] of at least 80% and a mortality at 500 ppm [3] of 100%. The mortality at 3.5 ppm [4] was at least 95%.

CCS(=O)(=O)c1cc(C(=O)NC)cnc1-c1nc2cc(C(F)(F)F)cnc2n1C [Compound of Present Invention 1-19] showed a mortality at 500 ppm [5] of at least 90%, a mortality at 500 ppm [6] of at least 90% and a mortality at 500 ppm [1] of at least 90%. It also gave a mortality at 500 ppm [3] of 100% and a mortality at 3.5 ppm [4] of at least 95%.

From EP2955179A1, “CONDENSED HETEROCYCLIC COMPOUND” (Sumitomo Chemical Company Limited, priority 2013, dated 2014)
